Experimental findings from article PMC8948984, “Diversified Chaetoglobosins from the Marine-Derived Fungus Emericellopsis sp. SCSIO41202” (Molecules, 2022) are described below.

Assay [1] addresses acetylcholinesterase (AChE) (Homo sapiens, UniProt P22303). Description: biochemical. How it is done: The inhibitory effects of 4–13 on AChE were measured in vitro in 96-well plates as previously described.
In assay [2] the test system is PC-3 cells. Description: CCK-8 cytotoxicity assay, PC-3 cells. It is filed as cell-based. How it is done: Compounds 4–13 were tested for their cytotoxicity against two prostatic carcinoma cell lines, PC-3 and 22Rv1, according to the reported CCK-8 (Dojindo) method. In brief, cells were seeded in a 96-well plate at the appropriate cell concentration and then incubated for 24 h at 37 °C in a 100% relative humidity, 5% CO2 incubator. Compounds to be tested were diluted to the appropriate concentration with culture medium, and the amount of each compound was adjusted to 25 μL before adding to the cells. Docetaxel (S1148, Selleck) was used as a positive control. The medium was aspirated, a fresh complete medium with 10% CCK-8 was added to incubate in a 37 °C incubator for 2-4 h, and the absorbance of the soultion at 450 nm was measured by an Envision 2104 multilabel reader (PerkinElmer). The inhibition rate was calculated by taking the absorbance at 650 nm as a reference.

The mark [3] stands for this setting: in vitro, 96-well plates, read-out: AChE inhibitory activity IC50.

One may read the IC50 as the point on the concentration scale where inhibition reaches its midpoint.

Like-named read-outs stand apart in the source and are kept apart here.

Chain of acetylcholinesterase (AChE) (P22303 32-614, species assumed): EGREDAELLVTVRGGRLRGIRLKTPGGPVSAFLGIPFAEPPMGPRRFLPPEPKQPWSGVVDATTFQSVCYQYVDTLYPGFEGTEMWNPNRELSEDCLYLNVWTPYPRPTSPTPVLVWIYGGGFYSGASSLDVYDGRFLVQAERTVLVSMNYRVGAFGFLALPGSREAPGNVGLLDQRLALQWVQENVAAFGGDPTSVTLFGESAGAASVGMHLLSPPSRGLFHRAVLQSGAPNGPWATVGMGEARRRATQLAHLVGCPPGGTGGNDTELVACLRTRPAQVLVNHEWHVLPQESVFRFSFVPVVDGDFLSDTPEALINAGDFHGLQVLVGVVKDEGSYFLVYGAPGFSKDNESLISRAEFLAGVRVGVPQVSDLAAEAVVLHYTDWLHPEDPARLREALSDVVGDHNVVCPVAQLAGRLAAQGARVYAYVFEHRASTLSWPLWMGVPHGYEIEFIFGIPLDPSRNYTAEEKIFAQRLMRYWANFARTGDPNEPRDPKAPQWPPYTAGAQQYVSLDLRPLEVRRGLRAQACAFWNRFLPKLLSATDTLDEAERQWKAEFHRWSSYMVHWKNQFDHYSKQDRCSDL

For the compound `CC1=C(C)[C@H]2[C@H](Cc3c[nH]c4ccccc34)NC(=O)[C@]23C(=O)CC[C@H](O)C(=O)/C(C)=C/[C@@H](C)C/C=C/[C@H]3[C@@H]1O` [Compound 4, chaetoglobosin E], in assay [1] (setting [3]), the IC50 turned out to be 4.15 µM.
Consider `C=C1[C@@H](C)[C@H]2[C@H](Cc3c[nH]c4ccccc34)NC(=O)[C@]23C(=O)CC[C@H](O)C(=O)/C(C)=C/[C@@H](C)C/C=C/[C@H]3[C@@H]1O` [Compound 5, chaetoglobosin Fex], for which the IC50 was 31.7 µM in assay [1]; 2.32 µM in assay [2] (Homo sapiens, PC-3, read-out: IC50 against PC-3 cells, prostatic carcinoma cell line PC-3, CCK-8, triplicate); 2.32 µM in assay [2] (read-out: IC50 against PC-3 cells, prostatic carcinoma cell line PC-3, CCK-8, triplicate, listed as C5).
With `CC1=C(C)[C@H]2[C@H](Cc3c[nH]c4ccccc34)NC(=O)[C@]23C(=O)CCC(=O)C(=O)/C(C)=C/[C@@H](C)C/C=C/[C@H]3[C@@H]1O` [Compound 6, chaetoglobosin G], in assay [1], the IC50 amounted to 8.71 µM.
As to `CC1=C(O)C(=O)[C@H]2CC(=O)[C@@]34C(=O)N[C@@H](Cc5c[nH]c6ccccc56)[C@@H]3C(C)=C(C)[C@@H](O)[C@@H]4/C=C/C[C@H](C)[C@H]12` [Compound 8, chaetoglobosin V], in assay [1] (setting [3]), the IC50 is 1.31 µM.
Same read-out and setting: for `CC1=C(O)C(=O)[C@@H]2CC(=O)[C@@]34C(=O)N[C@@H](Cc5c[nH]c6ccccc56)[C@@H]3C(C)=C(C)[C@@H](O)[C@@H]4/C=C/C[C@H](C)[C@@H]12` [Compound 9, chaetoglobosin Vb] the value was 23.7 µM.
In the case of `CC(=O)O[C@@]12CO[C@@H]1C[C@H](O)[C@@]1(C)C(=O)[C@H](O)C3=C(C)[C@@H](OC(=O)[C@H](O)[C@@H](NC(=O)OC(C)(C)C)c4ccccc4)C[C@@](O)([C@@H](OC(=O)c4ccccc4)[C@H]21)C3(C)C` [docetaxel, reference compound], the IC50 in assay [2] (Homo sapiens, prostatic carcinoma cell line PC-3, CCK-8, triplicate, read-out: IC50 against PC-3 cells) is 0.12 µM.
